Key:
[1] = tested on: neurosphere cultures of primary rat neural stem cells; assay: Neurosphere cultures, immunocytochemistry for neural markers; type: cell-based; conditions: 10 μM during a week; compared to control (FIG. 3)
Description: Neurosphere (NS) cultures were derived from the hippocampus of adult rats and induced to proliferate using established passaging methods to achieve optimal cellular expansion according to published protocols [Ferron, S. R.; Andreu-Agullo, C.; Mira, H.; Sanchez, P.; Marques-Torrejon, M. A.; Farinas, I. A combined ex/in vivo assay to detect effects of exogenously added factors in neural stem cells. Nature Protoc. 2007, 2, 849-859]. Rats were decapitated, brains removed, and the hippocampus dissected as described [Morales-Garcia, J. A.; Luna-Medina, R.; Alfaro-Cervello, C.; Cortes-Canteli, M.; Santos, A.; Garcia-Verdugo, J. M.; Perez-Castillo, A. Peroxisome proliferator-activated receptor gamma ligands regulate neural stem cell proliferation and differentiation in vitro and in vivo. Glia 2011, 59, 293-307]. Briefly, cells were seeded into 12-well dishes and cultured in DMEM/F12 (1:1, Invitrogen) containing 10 ng/mL epidermal growth factor (EGF, Peprotech, London, UK), 10 ng/mL fibroblast growth factor (FGF, Peprotech), and B27 medium (Gibco). After 3 days in culture, NS were cultivated in the presence or absence of the indicated compounds (10 μM) during a week. After that, NS from 10-day old cultures were plated for 72 hours onto 100 μg/mL poly-L-lysine-coated coverslips in the absence of exogenous growth factors.
Neurogenesis is a crucial property for new AD-modifying drugs, since it confers the potential to increase endogenous regeneration as a repair mechanism in the damaged brain, and reduce neuronal loss and degeneration. Considering that GSK-3β inhibition is reported to regulate and increase neurogenesis [Lange, C.; Mix, E.; Frahm, J.; Glass, A.; Muller, J.; Schmitt, O.; Schmole, A. C.; Klemm, K.; Ortinau, S.; Hubner, R.; Frech, M. J.; Wree, A.; Rolfs, A. Small molecule GSK-3 inhibitors increase neurogenesis of human neural progenitor cells. Neurosci. […]

[2] = tested on: primary astrocytes and microglial cells; assay: Nitrites measurement (Griess reaction) in LPS-stimulated primary glial cells; type: cell-based, rat; conditions: for reduction of LPS-induced nitrite production: compounds 10 μM for 1 hour, then LPS 10 μg/mL for 24 hours, astrocytes and microglia, potency compared with 6-amino triazinones A-C (FIGS. 2A, 2B); for nitrite production in astrocyte cells: compounds 10 μM, LPS 10 μg/mL 24 hours, astrocyte cells (FIG. 2A)
Protocol: Astrocytes were prepared from neonatal (P2) rat cerebral cortex, as previously described by Luna-Medina et al. [Luna-Medina, R.; Cortes-Canteli, M.; Alonso, M.; Santos, A.; Martinez, A.; Perez-Castillo, A. Regulation of inflammatory response in neural cells in vitro by thiadiazolidinones derivatives through peroxisome proliferator-activated receptor gamma activation. J. Biol. Chem. 2005, 280, 21453-21462].
Briefly, after removal of the meninges, the cerebral cortex was dissected, dissociated, and incubated with 0.25% trypsin/EDTA at 37° C. for 1 hour. After centrifugation, the pellet was washed 3 times with Hank's balanced salt solution (HBSS) (Gibco) and the cells were placed on noncoated flasks and maintained in HAMS/Dulbecco's modified eagle's medium (DMEM) (1:1) medium containing 10% of fetal bovine serum (FBS). After 15 days, the flasks were agitated on an orbital shaker for 4 hours at 240 rpm at 37° C., the supernatant was collected, centrifuged, and the cellular pellet containing the microglial cells resuspended in complete medium (HAMS/DMEM (1:1) containing 10% FBS) and seeded on uncoated 96-well plates. Cells were allowed to adhere for 2 hours, and the medium was removed to eliminate nonadherent oligodendrocytes. New fresh medium containing 10 ng/mL of granulocyte-macrophage colony-stimulating factor (GM-CSF) was added. The remaining astroglial cells adhered on the flasks were then trypsinized, collected, centrifugated, and plated onto 96-well plates with complete medium. The purity of cultures obtained by this procedure was >98% as determined by immunofluorescence with the OX42 (microglial marker) and the glial fibrillary acidic protein (GFAP, astroglial marker) antibodies.
The potential anti-inflammatory activity of the selected compounds was tested by evaluating the production of nitrites from primary cultured glial cells. Primary cultures of astrocytes and microglia were incubated with the selected compounds (10 μM) for 1 hour, and then cells were cultured for another 24 hours with a potent inflammatory agent, such as lipopolysaccharide (LPS) (10 μg/mL). LPS is able to induce nitrite production and accumulation in the culture medium, which was assayed by the standard Griess reaction. Supernatants were collected from the media and mixed with an equal volume of Griess reagent (Sigma). Samples were then incubated at rt for 15 minutes and absorbance read using a plate reader at 492/540 nm.

| Compound | number of β-tubulin positive cells (immature neuronal marker) [1] | reduction of LPS-induced nitrite production [2] | nitrite production in astrocyte cells [2] | number of MAP-2 positive cells (mature neuronal marker) [1] |
| --- | --- | --- | --- | --- |
| CCNC1=NC(c2ccc(F)cc2)NC(=O)N1 (racemic) [Example 3, 6-(ethylamino)-4-(4-fluorophenyl)-3,4-dihydro-1,3,5-triazin-2(1H)-one] | significantly increased | higher potency | restore nitrite production to basal level | – |
| CCCNC1=NC(c2ccc(F)cc2)NC(=O)N1 (stereo not drawn) [Example 6, 4-(4-fluorophenyl)-6-(propylamino)-3,4-dihydro-1,3,5-triazin-2(1H)-one] | – | higher potency | restore nitrite production to basal level | significantly amplified |
